Data: patent publication US7332279B2 (Glycozym APS, priority 1999, dated 2008)
Read-outs that look alike come from different tables or passages of the source.

How the values were obtained:
[1] = target: T1, β3Gal-T5 (Homo sapiens, UniProt Q9Y2C3, M85T); assay: Galactosyltransferase assay, partially purified secreted recombinant β3Gal-T5, saccharide acceptors; format: biochemical; details: for β3Gal-T5 activity, substrate concentration 1 mM: acceptor 1 mM; for β3Gal-T5 activity, substrate concentration 5 mM: acceptor 5 mM
T1 construct: designed to exclude the hydrophobic transmembrane segment and to encode amino acid residues 25-310; secretion signal of vector pAcGP67B (gp67); made in house; host or cells: baculovirus; Sf9 cells (media) and High Five cells (serum-free medium, partially purified)
T1 sequence (Q9Y2C3 25-310 M85T): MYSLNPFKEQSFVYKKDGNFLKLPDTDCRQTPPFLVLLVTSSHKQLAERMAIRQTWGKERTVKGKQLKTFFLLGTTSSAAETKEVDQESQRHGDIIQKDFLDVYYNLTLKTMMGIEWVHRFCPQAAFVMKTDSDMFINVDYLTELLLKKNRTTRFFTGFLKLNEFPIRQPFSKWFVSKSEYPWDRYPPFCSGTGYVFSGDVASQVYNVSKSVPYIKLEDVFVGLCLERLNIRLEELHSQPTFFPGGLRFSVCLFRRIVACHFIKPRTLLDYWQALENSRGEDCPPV
Description: PCR product was cloned into the BamHI site of pAcGP67B (Pharmingen). […] This PCR product was cloned into the BamHI site of pVL1193 (Pharmingen). Both soluble and full length constructs were fully sequenced to confirm fidelity. Plasmids […]5-full were co-transfected with Baculo-GoldTM DNA (Pharmingen) as described previously (Bennett, […]. and Clausen, H. cDNA cloning and expression of a novel human UDP-N-acetyl-alpha-D-galactosamine. Polypeptide N-acetyl-galactosaminyl-transferase, GalNAc-T3. J. Biol. Chem. 271:17006-17012, 1996). Recombinant Baculo-virus were obtained after two successive amplifications in Sf9 cells grown in serum-containing medium, and titers of virus were estimated by titration in 24-well plates with monitoring of enzyme activities. […] J. Biol. […] J. Biol. […] Polypeptide N-acetyl-galactosaminyl-transferase, GalNAc-T3. J. Biol. Chem. 271:17006-17012, 1996). For large scale expression amplified virus was used to infect High FiveTM cells grown in serum-free media (Invitrogen) in upright roller bottles shaking at 140 rpm and 27° C. The kinetic properties were determined with partially purified, secreted forms of the enzymes. Semipurification of enzymes from serum-free medium of infected High-FiveTM cells was performed by sequential Amberlite, DEAE-Sephacel and 5-Sepharose chromatography as described previously ([…]., et al. […] J. Biol. Chem. 272:23503-23514, 1997). Comparisons of enzymes were performed relatively to the activity obtained with βGlcNAc-Bz1 (Tables II and III). Full length enzymes were assayed with 1% Triton CF54 homogenates of washed cells. […] Reaction products were quantified by Dowex-1 chromatography. […] P. and Clausen, H. […] J. Biol. Chem. 273:29295-29305, 1998). The transfer of Gal was evaluated after acid precipitation by filtration through Whatman GF/C glass fibre filters. […] Assays with glycolipid acceptors were conducted as previously described (Holmes, E. H. […] Arch Biochem Biophys 270:630-646, 1989) in reaction mixtures containing 2.5 μmol HEPES buffer, pH 7.2, μmol MnCl2, 100 μg taurodeoxycholate or Triton CF-54, 20 μg acceptor glycolipid, 15 nmol UDP-[^14C]-galactose (13,000 cpm/nmol) and enzyme in a total volume of 100 μl. Conditions for incubation and product isolation were as previously described (Id.).

[2] = target: T2, β3Gal-T2 (Homo sapiens, UniProt O43825); assay: Galactosyltransferase assay, recombinant β3Gal-T2, saccharide acceptors; format: biochemical
T2 construct: The kinetic properties were determined with partially purified, secreted forms of the enzymes; made in house; host or cells: baculovirus; Sf9 / High Five insect cells, medium
T2 sequence (O43825 46-422 limits assumed): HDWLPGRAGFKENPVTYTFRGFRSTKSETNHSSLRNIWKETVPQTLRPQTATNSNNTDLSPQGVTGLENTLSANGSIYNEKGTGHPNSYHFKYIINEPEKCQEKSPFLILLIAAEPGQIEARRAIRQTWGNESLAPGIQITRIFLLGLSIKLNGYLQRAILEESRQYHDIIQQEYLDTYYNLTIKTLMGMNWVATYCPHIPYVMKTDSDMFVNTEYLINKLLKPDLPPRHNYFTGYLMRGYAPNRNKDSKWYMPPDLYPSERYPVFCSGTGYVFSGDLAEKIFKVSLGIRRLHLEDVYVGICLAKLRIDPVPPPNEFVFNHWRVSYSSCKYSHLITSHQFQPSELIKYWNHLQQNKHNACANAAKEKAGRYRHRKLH

Row | Compound | β3Gal-T5 activity, acceptor 0.2 mM [1] | β3Gal-T5 ratio to value with βGlcNAc-Bzl, acceptor 0.2 mM [1] | β3Gal-T5 activity, acceptor 2 mM [1] | β3Gal-T5 ratio to value with βGlcNAc-Bzl, acceptor 2 mM [1] | Vmax ([1]; Table V) | Km ([1]; Table V, read-out: Km) | β3Gal-T5 activity, substrate concentration 1 mM [1] | β3Gal-T5 activity, substrate concentration 5 mM [1] | Km ([1]; acceptor substrate, read-out: apparent Km of β3Gal-T5) | β3Gal-T2 activity, acceptor 0.2 mM [2] | β3Gal-T2 ratio to value with βGlcNAc-Bzl, acceptor 0.2 mM [2] | β3Gal-T2 activity, acceptor 2 mM [2] | β3Gal-T2 ratio to value with βGlcNAc-Bzl, acceptor 2 mM [2] | β3Gal-T5 activity with β-D-GlcNAc-Bzl (Table III) ([1]; β-D-GlcNAc-Bzl at 20 mM) | β3Gal-T5 activity with βGlcNAc-Bzl ([1]; β-D-GlcNAc-Bzl at 20 mM) | β3Gal-T2 activity with β-D-GlcNAc-Bzl (Table III) ([2]; β-D-GlcNAc-Bzl at 80 mM) | β3Gal-T2 activity with βGlcNAc-Bzl ([2]; β-D-GlcNAc-Bzl at 80 mM)
1 | CC(=O)NC1C(OC2C(O)C(CO)OC(Oc3ccc([N+](=O)[O-])cc3)C2NC(C)=O)OC(CO)C(O)C1O [β-D-GlcNAc-(1–3)-α-D-GalNAc-p-Nph] | 0.3 nmol/min | (0.3) | 0.2 nmol/min | (2.0) | 931.1 pmol/min | 2800 µM | 10.8 nmol/min/mL | 34.4 nmol/min/mL | 2800 µM | 0.0 nmol/min | (0.0) | 0.0 nmol/min | (0.0) | – | – | – | –
2 | CC(=O)N[C@H]1[C@H](OCc2ccccc2)O[C@H](CO)[C@@H](O)[C@@H]1O [β-D-GlcNAc-Bzl] | – | – | – | – | 873.4 pmol/min | 20400 µM | 1.5 nmol/min/mL | 3.9 nmol/min/mL | – | – | – | – | – | 0.1 nmol/min | 0.1 nmol/min | 0.04 nmol/min | 0.04 nmol/min
3 | CC(=O)N[C@H]1[C@H](OC[C@H]2O[C@H](Oc3ccc([N+](=O)[O-])cc3)[C@H](NC(C)=O)[C@@H](O[C@@H]3O[C@H](CO)[C@H](O)[C@H](O)[C@H]3O)[C@H]2O)O[C@H](CO)[C@@H](O)[C@@H]1O [βGlcNAc(1,6)[βGal(1,3)]αGalNAc-p-Nph] | 0.0 nmol/min | (0.0) | 0.01 nmol/min | (0.1) | – | – | – | – | – | 0.0 nmol/min | (0.0) | 0.0 nmol/min | (0.0) | – | – | – | –
